Measurements from ChEMBL document CHEMBL1201862, “PubChem BioAssay data set” (2004).
Calls of active or inactive are those of the source.

Tests used:
[1] = target: T1, Replicative DNA helicase DnaB (Mycobacterium tuberculosis, UniProt P9WMR3); experiment: DnaB intein splicing inhibitors, dose response, biochemical, cell-free fluorescence (AID 449749); type: functional
T1 sequence (P9WMR3 whole entry): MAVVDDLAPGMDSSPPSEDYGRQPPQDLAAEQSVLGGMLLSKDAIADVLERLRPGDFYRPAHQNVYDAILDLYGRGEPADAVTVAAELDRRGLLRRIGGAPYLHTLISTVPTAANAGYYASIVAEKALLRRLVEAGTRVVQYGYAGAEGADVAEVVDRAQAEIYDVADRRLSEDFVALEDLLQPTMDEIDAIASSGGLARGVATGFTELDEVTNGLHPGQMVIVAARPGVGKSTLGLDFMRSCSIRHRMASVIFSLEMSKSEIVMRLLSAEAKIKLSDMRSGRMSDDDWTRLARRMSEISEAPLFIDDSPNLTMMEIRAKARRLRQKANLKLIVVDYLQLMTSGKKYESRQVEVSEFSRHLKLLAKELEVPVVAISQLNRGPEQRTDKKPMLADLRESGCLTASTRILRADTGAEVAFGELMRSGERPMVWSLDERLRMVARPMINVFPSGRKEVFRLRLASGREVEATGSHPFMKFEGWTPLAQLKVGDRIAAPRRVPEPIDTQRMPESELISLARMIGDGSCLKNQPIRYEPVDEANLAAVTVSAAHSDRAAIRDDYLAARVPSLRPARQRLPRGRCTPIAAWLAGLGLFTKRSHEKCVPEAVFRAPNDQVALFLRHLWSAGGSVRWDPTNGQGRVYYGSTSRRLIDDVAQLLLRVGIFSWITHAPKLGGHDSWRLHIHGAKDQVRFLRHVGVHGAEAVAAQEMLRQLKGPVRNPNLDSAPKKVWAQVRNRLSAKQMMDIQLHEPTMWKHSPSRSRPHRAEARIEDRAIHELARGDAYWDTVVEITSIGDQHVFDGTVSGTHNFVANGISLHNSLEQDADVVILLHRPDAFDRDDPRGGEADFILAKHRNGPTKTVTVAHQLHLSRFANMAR

Protein RecA = target: T2, Protein RecA (Mycobacterium tuberculosis, UniProt P9WHJ3); experiment: Fluorescence Cell-Free Homogeneous Dose Retest to Identify Inhibitors of RecA-Intein Splicing Activity. [Related pubchem assays (depositor defined):AID2097, AID2223, AID489010, AID492950]; type: functional
T2 sequence (P9WHJ3 whole entry): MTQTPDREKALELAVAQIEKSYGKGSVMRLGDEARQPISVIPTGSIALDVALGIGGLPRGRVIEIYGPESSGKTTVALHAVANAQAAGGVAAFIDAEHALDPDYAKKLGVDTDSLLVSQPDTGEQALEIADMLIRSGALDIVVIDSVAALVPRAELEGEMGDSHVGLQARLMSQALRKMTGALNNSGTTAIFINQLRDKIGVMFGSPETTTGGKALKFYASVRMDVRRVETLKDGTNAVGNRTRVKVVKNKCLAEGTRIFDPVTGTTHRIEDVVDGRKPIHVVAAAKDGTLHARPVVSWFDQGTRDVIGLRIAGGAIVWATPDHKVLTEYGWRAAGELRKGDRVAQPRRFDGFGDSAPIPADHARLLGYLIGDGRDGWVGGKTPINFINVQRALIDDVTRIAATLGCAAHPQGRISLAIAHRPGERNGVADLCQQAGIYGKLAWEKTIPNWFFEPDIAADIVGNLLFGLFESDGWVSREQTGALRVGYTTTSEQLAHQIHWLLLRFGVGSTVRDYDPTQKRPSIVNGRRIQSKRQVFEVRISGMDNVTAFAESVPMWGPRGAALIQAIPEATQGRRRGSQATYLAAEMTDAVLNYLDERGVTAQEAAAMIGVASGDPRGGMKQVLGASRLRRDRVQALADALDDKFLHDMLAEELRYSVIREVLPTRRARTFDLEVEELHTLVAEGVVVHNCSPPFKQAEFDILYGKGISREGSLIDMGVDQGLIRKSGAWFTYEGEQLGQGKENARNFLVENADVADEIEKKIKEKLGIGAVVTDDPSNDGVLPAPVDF

[2] = alpha-synuclein stem-loop luciferase translation blockers – H4 neuroglioma cells, luminescence, confirmation (AID 1988); type: functional, cell-based
[3] = luciferase reporter signal suppression in cells – H4 neuroglioma cells, luminescence, dose response (AID 1990); type: functional, cell-based
[4] = Luminescence Cell-Based Dose Response HTS to Identify Inhibitors of 5'UTR Stem-Loop Driven Prion Protein mRNA Translation in H4 Neuroglioblastoma Cells. [Related pubchem assays: 1827 (Project Summary), 1813 (Primary HTS)]; type: functional
Cytochrome P450 3A4 = Cytochrome P450 3A4 (Homo sapiens, UniProt P08684);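 also: CYP3A4 tested as one member of a cytochrome P450 panel screen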
Cytochrome P450 2C9 = Cytochrome P450 2C9 (Homo sapiens, UniProt P11712)
[5] = Luminescence Cell-Based Dose Retest to Confirm Inhibitors of Cancer Stem Cells. [Related pubchem assays (depositor defined):AID2717, AID2721]; type: functional; conditions: Homo sapiens
Cytochrome P450 1A2 = target: T3, Cytochrome P450 1A2 (Homo sapiens, UniProt P05177);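 also: PubChem cytochrome P450 panel assay, CYP1A2 panel member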
T3 sequence (P05177 whole entry): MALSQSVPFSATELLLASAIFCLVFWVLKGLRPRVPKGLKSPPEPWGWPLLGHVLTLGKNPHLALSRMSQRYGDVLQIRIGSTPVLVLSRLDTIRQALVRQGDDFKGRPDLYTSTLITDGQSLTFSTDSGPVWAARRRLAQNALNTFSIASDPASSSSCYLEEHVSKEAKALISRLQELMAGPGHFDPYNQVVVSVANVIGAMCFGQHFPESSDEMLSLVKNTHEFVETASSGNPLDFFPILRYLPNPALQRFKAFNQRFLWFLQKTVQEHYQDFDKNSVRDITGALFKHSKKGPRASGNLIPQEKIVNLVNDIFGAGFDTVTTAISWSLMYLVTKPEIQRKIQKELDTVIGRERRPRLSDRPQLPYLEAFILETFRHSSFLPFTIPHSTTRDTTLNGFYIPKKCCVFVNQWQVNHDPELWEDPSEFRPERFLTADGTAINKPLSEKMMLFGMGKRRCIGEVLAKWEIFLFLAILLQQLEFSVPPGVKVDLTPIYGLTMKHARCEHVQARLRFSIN

Cytochrome P450 2C19 = Cytochrome P450 2C19 (Homo sapiens, UniProt P33261); experiment: Cytochrome panel assay with activity outcomes. Panel member name: p450-cyp2c19 Compounds with AC50 equal or less than 10 uM are considered active; type: functional; conditions: read-out: AC50
[6] = NIH3T3 cell viability loss – ATP luminescence, mouse fibroblasts, counter-screen, dose response (AID 2010); type: functional, cell-based;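 also: cells exposed to compound for about 90 hours before reading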
[7] = Trypanosoma cruzi growth suppression in host cells – NIH3T3 host cells, beta-gal luminescence, confirmation (AID 2044); type: functional, cell-based;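 also: intracellular parasites grown in NIH/3T3 mouse fibroblasts as host cells; luminescent beta-galactosidase reporter signal from transgenic T. cruzi replicating inside host cells; inhibitors lower the luminescence signal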
[8] = test system: Streptococcus sp. 'group A'; experiment: Streptococcus pyogenes SK(-)GAS viability under kanamycin – luminescence, BacTiterGlo, confirmation, counter-screen for streptokinase expression inhibitor project, dose response (AID 1900); type: functional, organism-based
Streptococcus = experiment: GAS UMAA2166 growth inhibition – luminescence, BacTiterGlo, counter-screen for streptokinase expression inhibitor project, dose response (AID 1915); type: functional, organism-based;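 also: potency for reduction of bacterial viability or growth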

Sequence of Cytochrome P450 3A4 (P08684 whole entry): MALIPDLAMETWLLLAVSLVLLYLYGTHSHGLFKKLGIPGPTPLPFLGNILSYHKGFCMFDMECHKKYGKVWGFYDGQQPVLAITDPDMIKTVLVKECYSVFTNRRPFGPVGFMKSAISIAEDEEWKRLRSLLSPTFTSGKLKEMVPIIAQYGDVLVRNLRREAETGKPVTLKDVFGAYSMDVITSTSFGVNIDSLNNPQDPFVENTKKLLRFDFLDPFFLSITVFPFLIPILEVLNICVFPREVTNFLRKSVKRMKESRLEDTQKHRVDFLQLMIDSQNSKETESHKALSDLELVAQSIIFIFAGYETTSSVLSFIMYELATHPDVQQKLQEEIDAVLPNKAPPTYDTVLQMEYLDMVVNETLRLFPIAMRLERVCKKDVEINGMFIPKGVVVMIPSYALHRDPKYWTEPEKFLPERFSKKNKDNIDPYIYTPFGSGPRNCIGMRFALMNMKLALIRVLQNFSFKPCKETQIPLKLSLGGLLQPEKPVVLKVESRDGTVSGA
Sequence of Cytochrome P450 2C19 (P33261 whole entry): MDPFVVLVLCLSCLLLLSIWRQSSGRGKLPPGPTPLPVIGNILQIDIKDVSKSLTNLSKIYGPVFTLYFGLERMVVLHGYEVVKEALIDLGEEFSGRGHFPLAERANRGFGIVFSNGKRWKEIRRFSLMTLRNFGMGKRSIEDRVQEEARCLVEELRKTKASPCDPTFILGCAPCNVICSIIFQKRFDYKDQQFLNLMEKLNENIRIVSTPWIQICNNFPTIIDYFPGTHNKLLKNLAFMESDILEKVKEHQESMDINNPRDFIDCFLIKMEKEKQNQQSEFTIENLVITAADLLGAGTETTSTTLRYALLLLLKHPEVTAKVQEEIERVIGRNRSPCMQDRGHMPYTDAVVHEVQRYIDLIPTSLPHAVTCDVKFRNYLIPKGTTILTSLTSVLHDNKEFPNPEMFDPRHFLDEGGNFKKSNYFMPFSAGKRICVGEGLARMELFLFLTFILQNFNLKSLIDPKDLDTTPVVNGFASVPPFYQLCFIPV
Sequence of Cytochrome P450 2C9 (P11712 whole entry): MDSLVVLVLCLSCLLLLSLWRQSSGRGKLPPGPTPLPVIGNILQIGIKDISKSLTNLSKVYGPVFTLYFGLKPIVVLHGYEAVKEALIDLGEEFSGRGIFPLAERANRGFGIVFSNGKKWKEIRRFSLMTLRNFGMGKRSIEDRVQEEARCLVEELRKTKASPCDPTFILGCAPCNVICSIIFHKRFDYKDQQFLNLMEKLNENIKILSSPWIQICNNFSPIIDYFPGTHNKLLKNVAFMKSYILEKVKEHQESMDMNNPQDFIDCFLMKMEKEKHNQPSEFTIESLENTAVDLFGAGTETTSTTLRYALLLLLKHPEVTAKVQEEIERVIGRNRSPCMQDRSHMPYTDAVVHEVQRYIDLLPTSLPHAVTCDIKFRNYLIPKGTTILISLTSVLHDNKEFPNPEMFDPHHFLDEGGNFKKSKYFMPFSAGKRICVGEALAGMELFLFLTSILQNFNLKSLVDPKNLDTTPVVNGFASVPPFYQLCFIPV

SMILES | EC50 [2] | EC50 [3] | EC50 [4] | further results
CC(=O)c1ccc(OC(=O)c2cccs2)cc1 | – | – | – | AC50 [1]: 24.3 µM (active); EC50 (Protein RecA): 12.2 µM (active)
O=C1c2ccccc2C(=O)C12Cc1ccccc1N1CCN(c3ccccc3)CC12 (centres undefined) | > 120 µM (not active) | > 120 µM (not active) | > 120 µM (not active) | –
CCOc1c2ccc(C(=O)NCc3ccco3)cc2nn1CC | – | – | – | AC50 (Cytochrome P450 3A4): 31.6 µM (inconclusive); AC50 (Cytochrome P450 2C9): 10 µM (inconclusive)
Cc1ccc(Cl)cc1N1CCN(C(CC(C)C)c2nnnn2CC2CCCO2)CC1 (centres undefined) | – | – | – | AC50 [5]: 0.631 µM (active)
CC(=O)c1ccc(Oc2ncnc(N)c2[N+](=O)[O-])cc1 | 11.2 µM (active) | > 120 µM (not active) | 13.6 µM (active) | –
Nc1nc(NCCOCCO)nc(NC2CCCCC2)c1[N+](=O)[O-] | 17.3 µM (active) | 16.7 µM (active) | 0.14 µM (active) | –
Cn1cccc1C(=O)N1CCC2(CCN(Cc3ccncc3)CC2)CC1 | – | – | – | AC50 (Cytochrome P450 1A2): 15.8 µM (inconclusive); AC50 (Cytochrome P450 2C19): 15.8 µM (inconclusive); AC50 (Cytochrome P450 3A4): 12.6 µM (inconclusive)
Cc1n[nH]c2c1C(CC(C)C)C(C#N)=C(N)O2 (centres undefined) | – | – | – | AC50 [1]: 13.1 µM (active); EC50 (Protein RecA): 3.84 µM (active)
O=C(CCCN1C(=O)/C(=C\c2cccs2)SC1=S)Nc1ccc(O)cc1C(=O)O | – | – | – | AC50 [1]: 17.7 µM (active); EC50 (Protein RecA): 12.7 µM (active)
Cc1cccc(NC(=O)c2cc(=O)c3ccccc3o2)n1 | – | – | – | AC50 (Cytochrome P450 2C19): 14.1 µM (inconclusive); AC50 (Cytochrome P450 3A4): 25.1 µM (inconclusive); AC50 (Cytochrome P450 2C9): 3.16 µM (inconclusive)
CCOC(=O)c1sc2nc(CC(=O)OC)nc(N3CCN(c4ccc(OC)cc4)CC3)c2c1C | 89.9 µM (active) | > 120 µM (not active) | > 120 µM (not active) | EC50 [6]: > 60 µM (not active); EC50 [7]: 1.91 µM (active)
Cn1cnc([N+](=O)[O-])c1Sc1ccc(C(C)(C)C)cc1 | – | – | – | AC50 [1]: 13.6 µM (active); EC50 (Protein RecA): 14.1 µM (active)
N#Cc1nc(Cc2cccc3ccccc23)oc1N1CCCCC1 | > 120 µM (not active) | 16.2 µM (active) | > 120 µM (not active) | –
CC(C)[C@@H]1CC[C@@H](C)c2c1n[nH]c2-c1ccccc1 | – | – | – | AC50 [5]: 4.99 µM (active)
Nc1nc(NCc2ccco2)nc(Nc2ccc(F)cc2)c1[N+](=O)[O-] | > 120 µM (not active) | 35 µM (active) | > 120 µM (not active) | –
CCCS(=O)(=O)N1CCCC(C(=O)N2CCN(c3ccccc3)CC2)C1 (centres undefined) | – | – | – | AC50 (Cytochrome P450 1A2): 0.00501 µM (inconclusive); AC50 (Cytochrome P450 2C19): 6.31 µM (inconclusive); AC50 (Cytochrome P450 3A4): 14.1 µM (inconclusive); AC50 (Cytochrome P450 2C9): 14.1 µM (inconclusive)
COc1ccc(/C=C/c2cc(C(=O)O)c3ccccc3n2)cc1 | 6.45 µM (active) | 3.67 µM (active) | 2.83 µM (active) | –
CCCc1nnc(NC(=O)c2c(O)c3cccc4c3n(c2=O)CCC4)s1 | > 120 µM (not active) | 99.5 µM (active) | > 120 µM (not active) | EC50 [8]: 2.53 µM (active); EC50 (Streptococcus): 3.1 µM (active)
COC(=O)Nc1nc(-c2ccccc2)c(C(=O)c2ccc(Cl)cc2)s1 | 0.179 µM (active) | 7.45 µM (active) | 7.87 µM (active) | –
CCc1nnc(NC(=O)c2ccc(S(=O)(=O)N(C)Cc3ccccc3)cc2)o1 | > 120 µM (not active) | > 120 µM (not active) | > 120 µM (not active) | –
CCCc1n[nH]c2c1C(c1ccccc1OCC)C(C#N)=C(N)O2 (centres undefined) | – | – | – | AC50 [1]: 237 µM (active); EC50 (Protein RecA): 9.01 µM (active)
CCOC(=O)C(C#N)C(c1cccnc1)c1c(C)[nH][nH]c1=O (centres undefined) | – | – | – | AC50 [1]: 6.32 µM (active); EC50 (Protein RecA): 1.81 µM (active)
CC1CCc2cccc3c2N1c1cc(C#N)c(C#N)cc1O3 (centres undefined) | 33.4 µM (active) | 8.54 µM (active) | 88.7 µM (active) | –
Oc1nc(CN2CCN(c3ccccn3)CC2)nc2c(Br)cc(Br)cc12 | – | – | – | AC50 [5]: 2.76 µM (active)
